The supplement of paper PMC10307832

Tests used:
Experiment in all cases: relative viability (nuclei count vs DMSO), 5 days (fraction); higher = more cells survive
[1] = compound: C1=CC2=C(C=CC(=C2)C=C3C(=O)NC(=NCC4=CC=CS4)S3)N=C1 [RO-3306] + CC1(C)CCC(c2ccc(Cl)cc2)=C(CN2CCN(c3ccc(C(=O)NS(=O)(=O)c4ccc(N[C@H](CCN5CCOCC5)CSc5ccccc5)c(S(=O)(=O)C(F)(F)F)c4)cc3)CC2)C1 [Navitoclax] (partner 0.5 µM)
Outline: (§1)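 After 5 days of treatment, lung cancer cells in 1536-well plates were fixed and stained in a single step (final 0.05% Triton X-100, 1% formaldehyde, 1 ug/ml Hoechst) and their nuclei counted on 4× images. Treatment had been applied by pin tool the day after seeding as one drug alone or as a fixed anchor-drug dose with five library-drug doses (not always all listed) in √10 steps. Relative viability is the nuclei count of treated wells divided by that of vehicle wells, and values are medians of duplicate plates.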

[2] = compound: O=S(=O)(c1ccccc1)N(CC(F)(F)F)c1ccc(C(O)(C(F)(F)F)C(F)(F)F)cc1 + COc1cccc2cc(-c3nc([C@H]4CC[C@H](C(=O)O)CC4)n4ncnc(N)c34)[nH]c12 [OSI-027] (partner 0.5 µM)
Outline: as §1

[3] = compound: O=S(=O)(c1ccccc1)N(CC(F)(F)F)c1ccc(C(O)(C(F)(F)F)C(F)(F)F)cc1 + Nc1ncn([C@H]2C[C@H](O)[C@@H](CO)O2)c(=O)n1 [Decitabine] (partner 2 µM)
Outline: as §1

[4] = compound: C1=CC2=C(C=CC(=C2)C=C3C(=O)NC(=NCC4=CC=CS4)S3)N=C1 [RO-3306] + O=C(c1cc(Cc2n[nH]c(=O)c3ccccc23)ccc1F)N1CCN(C(=O)C2CC2)CC1 [Olaparib] (partner 8 µM)
Outline: as §1

Row | Cell Line | relative viability ([1]; first compound 0.01 µM) | relative viability ([1]; first compound 0.03162 µM) | relative viability ([1]; first compound 0.1 µM) | relative viability ([1]; first compound 0.3162 µM) | relative viability ([1]; first compound 1 µM) | relative viability ([2]; first compound 0.8 µM) | relative viability ([2]; first compound 2.53 µM) | relative viability ([2]; first compound 8 µM) | relative viability ([3]; first compound 0.8 µM) | relative viability ([3]; first compound 2.53 µM) | relative viability ([3]; first compound 8 µM) | relative viability ([4]; first compound 0.01 µM) | relative viability ([4]; first compound 0.03162 µM) | relative viability ([4]; first compound 0.1 µM) | relative viability ([4]; first compound 0.3162 µM) | relative viability ([4]; first compound 1 µM)
1 | RERF-LC-KJ | 1.36 | 1.03 | 0.815 | 0.684 | 0.997 | 0.545 | 0.599 | 0.556 | 0.752 | 0.701 | 0.687 | 0.888 | 0.902 | 0.837 | 0.835 | 1.08
2 | NCI-H1793 | 0.432 | 0.391 | 0.46 | 0.46 | 0.358 | 0.292 | 0.188 | 0.207 | 0.262 | 0.384 | 0.4 | 0.686 |  | 0.789 | 0.893 | 0.954
3 | NCI-H1944 | 1.11 | 1.03 | 0.963 | 1.09 | 0.993 | 0.423 | 0.385 | 0.401 | 0.461 | 0.456 | 0.483 | 0.443 | 0.439 | 0.346 | 0.414 | 0.433
4 | BEN | 0.057 | 0.0628 | 0.0739 | 0.0677 | 0.0527 | 0.344 | 0.266 | 0.308 | 0.801 | 0.773 | 0.687 | 1.09 | 0.893 | 1.01 | 1.16 | 1.02
5 | H3255 | 0.458 | 0.484 | 0.558 | 0.47 | 0.428 | 0.63 | 0.597 | 0.603 | 0.567 | 0.473 | 0.642 | 0.608 | 0.513 | 0.595 | 0.558 | 0.505
6 | NCI-H1355 | 1.12 | 0.915 | 0.949 | 1.04 | 0.946 | 0.409 | 0.366 | 0.453 | 0.354 | 0.382 | 0.342 | 0.682 | 0.659 | 0.738 | 0.8 | 0.786
7 | HCC-366 | 1.22 | 0.943 | 0.991 | 1.14 | 1.15 | 1.16 | 0.872 | 0.729 | 0.394 | 0.376 | 0.242 | 0.384 | 0.281 | 0.366 | 0.383 | 0.393
8 | COR-L 105 | 0.823 | 0.814 | 0.742 | 0.842 | 0.688 | 0.763 | 0.581 | 0.715 | 0.63 | 0.679 | 0.649 | 0.661 | 0.798 | 0.633 | 0.715 | 0.601
9 | NCI-H1437 | 1.16 | 0.996 | 1.05 | 1.13 | 1.1 | 0.915 | 0.811 | 0.822 | 0.609 | 0.549 | 0.568 | 0.628 | 0.564 | 0.614 | 0.588 | 0.619
10 | NCI-H1792 | 0.74 |  | 0.614 | 0.599 | 0.311 | 0.688 | 0.717 | 0.458 | 0.562 | 0.395 | 0.562 | 0.544 |  | 0.484 | 0.51 | 0.436
11 | LOU-NH91 | 0.666 | 0.612 | 0.702 | 0.685 | 0.645 | 0.722 | 0.718 | 0.79 | 0.846 | 0.823 | 0.894 | 0.953 | 0.834 | 0.916 | 0.913 | 0.813
12 | LC-2-ad | 0.451 | 0.465 | 0.437 | 0.408 | 0.378 | 0.876 | 0.889 | 0.827 | 0.825 | 0.803 | 0.709 | 0.703 | 0.663 | 0.719 | 0.693 | 0.712
13 | PC-3 [JPC-3] | 1.04 | 0.697 | 0.816 | 0.805 | 0.745 | 0.864 | 0.744 | 0.785 |  | 0.817 | 0.826 | 1.21 | 1.07 | 1.11 | 1.17 | 1.12
14 | NCI-H1734 | 1 | 0.564 | 0.922 | 0.797 | 0.873 | 0.708 | 0.55 | 0.637 | 0.524 | 0.477 | 0.477 | 0.703 | 0.515 | 0.632 | 0.622 | 0.551
15 | NCI-H520 | 1.27 | 1.13 | 1.13 | 1.01 | 0.942 | 0.298 | 0.21 | 0.281 | 0.457 | 0.478 | 0.493 | 0.359 | 0.244 | 0.315 | 0.344 | 0.351
16 | HOP-62 | 1.14 | 1.01 | 1.07 | 0.937 | 1.33 | 0.904 | 0.878 | 0.665 | 0.252 | 0.193 | 0.239 | 0.606 | 0.476 | 0.168 | 0.406 | 0.678
17 | NCI-H1993 |  | 0.926 | 0.892 | 0.864 | 0.83 | 0.58 | 0.341 | 0.552 | 0.515 | 0.563 | 0.579 | 0.993 | 0.878 | 1.02 | 0.995 | 0.415

Row | Cell Line | relative viability ([1]; first compound 0.01 µM) | relative viability ([1]; first compound 0.03162 µM) | relative viability ([1]; first compound 0.1 µM) | relative viability ([1]; first compound 0.3162 µM) | relative viability ([1]; first compound 1 µM) | relative viability ([2]; first compound 0.8 µM) | relative viability ([2]; first compound 2.53 µM) | relative viability ([2]; first compound 8 µM) | relative viability ([3]; first compound 0.8 µM) | relative viability ([3]; first compound 2.53 µM) | relative viability ([3]; first compound 8 µM) | relative viability ([4]; first compound 0.01 µM) | relative viability ([4]; first compound 0.03162 µM) | relative viability ([4]; first compound 0.1 µM) | relative viability ([4]; first compound 0.3162 µM) | relative viability ([4]; first compound 1 µM)
18 | NCI-H2023 | 1.05 | 0.912 | 0.898 | 0.943 | 1.01 | 0.41 | 0.279 | 0.286 | 0.221 | 0.233 | 0.221 | 0.469 | 0.437 | 0.422 | 0.463 | 0.379
19 | NCI-H647 | 1.45 | 1.24 | 1.07 | 1.24 | 0.966 | 0.592 | 0.498 | 0.681 | 0.502 | 0.437 | 0.353 | 0.86 | 0.212 | 0.487 | 0.686 | 0.623
20 | EPLC-272H | 1.15 | 0.92 | 1.02 | 1.11 | 0.994 | 0.301 | 0.304 | 0.25 | 0.412 | 0.374 | 0.359 | 0.752 | 0.461 | 1.22 | 0.647 | 0.291
21 | NCI-H1395 | 1.13 | 1.38 | 1.11 | 1.04 | 0.978 | 0.512 | 0.57 | 0.579 | 0.712 | 0.741 | 0.815 | 0.503 | 0.488 | 0.491 | 0.425 | 0.408
22 | NCI-H3122 | 1.03 | 1.03 | 0.983 | 1.05 | 1.07 | 1.18 | 0.807 | 1.14 | 0.301 | 0.385 | 0.421 | 0.707 | 0.561 | 0.604 | 0.61 | 0.604
23 | SK-MES-1 | 1.36 | 1.25 | 1.22 | 1.36 | 1.2 | 0.639 | 0.647 | 0.443 | 0.375 | 0.337 | 0.366 | 0.805 | 0.671 | 0.601 | 0.677 | 0.665
24 | NCI-H322M | 1.24 | 1.14 | 1.25 | 1.22 | 1.19 | 0.61 | 0.501 | 0.506 | 0.685 | 0.721 | 0.663 | 0.817 | 0.743 | 0.773 | 0.785 | 0.696
25 | NCI-H727 | 0.45 | 0.395 | 0.433 | 0.471 | 0.455 | 0.669 | 0.474 | 0.631 | 0.922 | 0.963 | 0.913 | 0.666 | 0.722 | 0.844 | 0.724 | 0.621
26 | LU99A | 0.916 | 0.708 | 0.866 | 0.747 | 0.803 | 0.302 | 0.296 | 0.302 | 0.876 | 0.863 | 0.834 | 0.275 | 0.233 | 0.233 | 0.25 | 0.2
27 | SK-LU-1 | 1.08 | 0.837 | 0.774 | 0.926 | 0.832 | 0.355 | 0.286 | 0.358 | 0.669 | 0.63 | 0.703 | 0.425 | 0.415 | 0.458 | 0.663 | 0.425
28 | 201T | 1.2 | 1.21 | 1.14 | 1.23 | 1.23 | 0.685 | 0.738 | 0.688 | 0.846 | 0.858 | 0.834 | 0.861 | 0.855 | 0.82 | 0.828 | 0.828
29 | COR-L23 | 0.734 |  | 0.974 | 1.01 | 0.937 | 0.85 | 0.793 | 0.734 | 0.428 | 0.439 | 0.461 | 0.414 | 0.364 | 0.456 | 0.34 | 0.322
30 | LCLC-97TM1 |  | 0.292 | 0.354 | 0.399 | 0.317 | 0.614 | 0.527 | 0.603 |  | 0.22 | 0.196 | 0.406 | 0.479 | 0.315 | 0.367 | 0.278
31 | PC-14 | 1.11 |  | 1.06 | 1.19 | 1.18 | 0.991 | 0.886 | 0.44 | 0.197 | 0.19 | 0.209 | 0.298 | 0.232 | 0.235 | 0.227 | 0.237
32 | NCI-H1651 | 0.982 | 0.854 | 1.04 | 1.14 | 0.882 | 0.742 | 0.793 | 0.703 | 0.793 | 0.668 | 0.517 | 0.177 | 0.168 | 0.181 | 0.174 | 0.177
33 | HCC-15 | 0.727 | 0.656 | 0.716 | 0.808 | 0.654 | 0.799 | 0.607 | 0.623 | 0.562 | 0.419 | 0.5 | 0.666 | 0.628 | 0.756 | 0.701 | 0.693
34 | NCI-H1755 | 1.1 | 0.919 | 1.04 | 1.01 | 1.05 | 0.712 | 0.657 | 0.691 | 0.781 | 0.765 | 0.829 | 0.973 | 0.902 | 0.867 | 0.839 | 0.953
